Consider five molecules from ChEMBL document CHEMBL1136464, “Array synthesis of novel lipodepsipeptide” (Bioorg Med Chem Lett, 2003).

Molecules are shown by their SMILES. ≈ marks a conversion by molar mass, not a printed value.

Common to all, as to assay type: functional
For test [1], the system named is Staphylococcus aureus. Put plainly: Antibacterial activity against methicillin susceptible staphylococcus aureus ATCC 29213 at 10 % serum.
For test [2], the system named is Enterococcus faecalis. Kind of test: Antibacterial activity against Enterococcus faecalis ATCC 6569 at 10 % serum. The settings on record: ATCC 6569, Serum.
For test [3], the system named is Enterococcus faecalis. Put plainly: Antibacterial activity against Enterococcus faecalis ATCC 6569 at 0 % serum.
In test [4] the test system is Staphylococcus aureus. Put plainly: Antibacterial activity against methicillin susceptible staphylococcus aureus ATCC 29213 at 0 % serum.
The test system of test [5] is Enterococcus faecium. Kind of test: Antibacterial activity against Enterococcus faecium ATCC 49452 at 0 % serum.
Test [6] deals with Staphylococcus aureus. Put plainly: Antibacterial activity against methicillin-resistant staphylococcus aureus ATCC 43300 at 10 % serum.
The test system of test [7] is Enterococcus faecium. Kind of test: Antibacterial activity against Enterococcus faecium ATCC 49452 at 10 % serum. The settings on record: ATCC 49452, Serum.
The subject of test [8] is Staphylococcus aureus. Kind of test: Antibacterial activity against methicillin-resistant staphylococcus aureus ATCC 43300 at 0 % serum.

Broadly, the MIC is the lowest concentration found to suppress growth. For the molecule `CCCCCCCCCC(=O)N[C@@H](Cc1c[nH]c2ccccc12)C(=O)N[C@H](CC(N)=O)C(=O)N[C@@H](CCO)C(=O)N[C@@H]1C(=O)NCC(=O)N[C@@H](CCCNCc2cc3ccccc3o2)C(=O)N[C@@H](CC(=O)O)C(=O)N[C@H](C)C(=O)N[C@@H](CC(=O)O)C(=O)NCC(=O)N[C@H](CO)C(=O)N[C@@H]([C@H](C)CC(=O)O)C(=O)N[C@@H](CC(=O)c2ccccc2N)C(=O)O[C@@H]1C`, the minimum inhibitory concentration (MIC) was 1.56 µg/mL (≈ 0.898 µM) in test [1]; 6.25 µg/mL (≈ 3.6 µM) in test [2]; 3.13 µg/mL (≈ 1.8 µM) in test [3]; 0.78 µg/mL (≈ 0.449 µM) in test [4]; 3.13 µg/mL (≈ 1.8 µM) in test [5]; 0.78 µg/mL (≈ 0.449 µM) in test [6]. The minimal inhibitory concentration (MIC) came out at 12.5 µg/mL (≈ 7.2 µM) in test [7] and 0.78 µg/mL (≈ 0.449 µM) in test [8].

Consider `CCCCCCCCCC(=O)N[C@@H](Cc1c[nH]c2ccccc12)C(=O)N[C@H](CC(N)=O)C(=O)N[C@@H](CCO)C(=O)N[C@@H]1C(=O)NCC(=O)N[C@@H](CCCNCc2ccccc2F)C(=O)N[C@@H](CC(=O)O)C(=O)N[C@H](C)C(=O)N[C@@H](CC(=O)O)C(=O)NCC(=O)N[C@H](CO)C(=O)N[C@@H]([C@H](C)CC(=O)O)C(=O)N[C@@H](CC(=O)c2ccccc2N)C(=O)O[C@@H]1C`, for which the MIC stood at 1.56 µg/mL (≈ 0.91 µM) in test [1]; 12.5 µg/mL (≈ 7.29 µM) in test [2]; 6.25 µg/mL (≈ 3.64 µM) in test [3]; 0.78 µg/mL (≈ 0.455 µM) in test [4]; 6.25 µg/mL (≈ 3.64 µM) in test [5]; 0.78 µg/mL (≈ 0.455 µM) in test [6]. The minimal inhibitory concentration (MIC) in test [7] came to 12.5 µg/mL (≈ 7.29 µM); in test [8] it was 0.78 µg/mL (≈ 0.455 µM).

As to `CCCCCCCCCC(=O)N[C@@H](Cc1c[nH]c2ccccc12)C(=O)N[C@H](CC(N)=O)C(=O)N[C@@H](CCO)C(=O)N[C@@H]1C(=O)NCC(=O)N[C@@H](CCCNCc2ccccc2[N+](=O)[O-])C(=O)N[C@@H](CC(=O)O)C(=O)N[C@H](C)C(=O)N[C@@H](CC(=O)O)C(=O)NCC(=O)N[C@H](CO)C(=O)N[C@@H]([C@H](C)CC(=O)O)C(=O)N[C@@H](CC(=O)c2ccccc2N)C(=O)O[C@@H]1C`, the minimal inhibitory concentration (MIC) was determined as 1.56 µg/mL (≈ 0.896 µM) in test [1]; 25 µg/mL (≈ 14.4 µM) in test [2]; 12.5 µg/mL (≈ 7.18 µM) in test [3]; 0.78 µg/mL (≈ 0.448 µM) in test [4]; 12.5 µg/mL (≈ 7.18 µM) in test [5]; 0.78 µg/mL (≈ 0.448 µM) in test [6]. The MIC in test [7] was 25 µg/mL (≈ 14.4 µM); in test [8], 0.78 µg/mL (≈ 0.448 µM).

Take `CCCCCCCCCC(=O)N[C@@H](Cc1c[nH]c2ccccc12)C(=O)N[C@H](CC(N)=O)C(=O)N[C@@H](CCO)C(=O)N[C@@H]1C(=O)NCC(=O)N[C@@H](CCCNCc2ccccc2N)C(=O)N[C@@H](CC(=O)O)C(=O)N[C@H](C)C(=O)N[C@@H](CC(=O)O)C(=O)NCC(=O)N[C@H](CO)C(=O)N[C@@H]([C@H](C)CC(=O)O)C(=O)N[C@@H](CC(=O)c2ccccc2N)C(=O)O[C@@H]1C`: the MIC is 3.13 µg/mL (≈ 1.83 µM) in test [1]; 25 µg/mL (≈ 14.6 µM) in test [2]; 6.25 µg/mL (≈ 3.65 µM) in test [3]; 0.78 µg/mL (≈ 0.456 µM) in test [4]; 6.25 µg/mL (≈ 3.65 µM) in test [5]; 1.56 µg/mL (≈ 0.911 µM) in test [6]. Moreover, the results for the minimal inhibitory concentration (MIC) in test [7] and in test [8] were 6.25 µg/mL (≈ 3.65 µM) and 0.78 µg/mL (≈ 0.456 µM), respectively.

Consider `CCCCCCCCCC(=O)N[C@@H](Cc1c[nH]c2ccccc12)C(=O)N[C@H](CC(N)=O)C(=O)N[C@@H](CCO)C(=O)N[C@@H]1C(=O)NCC(=O)N[C@@H](CCCNCc2ccc(S(=O)(=O)NCc3ccc(F)cc3)cc2)C(=O)N[C@@H](CC(=O)O)C(=O)N[C@H](C)C(=O)N[C@@H](CC(=O)O)C(=O)NCC(=O)N[C@H](CO)C(=O)N[C@@H]([C@H](C)CC(=O)O)C(=O)N[C@@H](CC(=O)c2ccccc2N)C(=O)O[C@@H]1C`, for which the minimal inhibitory concentration (MIC) in test [1] amounted to 1.56 µg/mL (≈ 0.828 µM); in test [2], 3.13 µg/mL (≈ 1.66 µM); in test [3], 1.56 µg/mL (≈ 0.828 µM); in test [4], 0.39 µg/mL (≈ 0.207 µM); in test [5], 1.56 µg/mL (≈ 0.828 µM); in test [6], 0.78 µg/mL (≈ 0.414 µM). Further, the MIC in test [7] is 6.25 µg/mL (≈ 3.32 µM); in test [8], 0.39 µg/mL (≈ 0.207 µM).
